Data published in BindingDB's records for doi:10.1111/cbdd.12539 (Jagiellonian University Medical College, 2015).

What was measured:
[1] = biological target: T1, 5-hydroxytryptamine receptor 1A (Homo sapiens, UniProt P08908); assay: Radioligand Binding Assay; details: 25 °C
T1 sequence (P08908 whole entry): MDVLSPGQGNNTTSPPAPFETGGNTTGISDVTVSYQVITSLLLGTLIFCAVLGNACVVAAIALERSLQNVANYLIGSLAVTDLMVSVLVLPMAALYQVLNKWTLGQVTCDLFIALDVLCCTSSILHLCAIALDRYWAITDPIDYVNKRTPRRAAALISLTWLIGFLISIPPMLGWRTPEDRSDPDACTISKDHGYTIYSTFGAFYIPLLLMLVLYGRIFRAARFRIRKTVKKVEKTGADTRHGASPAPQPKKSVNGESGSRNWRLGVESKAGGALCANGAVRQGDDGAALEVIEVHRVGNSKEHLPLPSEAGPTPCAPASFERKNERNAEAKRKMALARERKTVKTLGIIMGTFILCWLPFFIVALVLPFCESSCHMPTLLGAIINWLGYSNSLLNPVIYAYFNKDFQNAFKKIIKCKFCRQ
Description: All assays were incubated in a total volume of […] in 96-well microtiter plates for 1 h at 37 °C, except for 5-HT1ARs which were incubated at room temperature for 1 h. The process of equilibration was terminated by rapidfiltration through Unifilter plates with a 96-well cell harvester and radioactivity retained on the filters was quantified on a Microbeta plate reader.

[2] = biological target: 5-hydroxytryptamine receptor 7 (Homo sapiens, UniProt P34969); assay: Radioligand Binding Assay; details: 25 °C
Chain of 5-hydroxytryptamine receptor 7 (P34969 whole entry): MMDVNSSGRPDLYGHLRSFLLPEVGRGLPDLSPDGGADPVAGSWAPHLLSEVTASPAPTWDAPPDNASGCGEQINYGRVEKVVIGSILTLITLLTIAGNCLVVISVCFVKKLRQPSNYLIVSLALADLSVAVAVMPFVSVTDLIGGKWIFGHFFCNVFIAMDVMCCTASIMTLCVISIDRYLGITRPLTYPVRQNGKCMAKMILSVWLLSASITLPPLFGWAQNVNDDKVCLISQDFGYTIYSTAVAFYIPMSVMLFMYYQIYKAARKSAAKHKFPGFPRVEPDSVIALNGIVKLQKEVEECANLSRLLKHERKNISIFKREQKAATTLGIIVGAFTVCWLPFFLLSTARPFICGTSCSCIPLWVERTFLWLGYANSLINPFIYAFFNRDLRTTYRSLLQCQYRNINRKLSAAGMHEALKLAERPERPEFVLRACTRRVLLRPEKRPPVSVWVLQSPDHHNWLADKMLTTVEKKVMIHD

| SMILES | Ki [1] | Ki [2] |
| --- | --- | --- |
| O=C1NN=C(c2ccccc2Cl)NC1CCCCN1CCN(c2ccccc2F)CC1 (stereo not given) [3-(2-Chlorophenyl)-5-{4-[4-(2-fluorophenyl)piperazin-1-yl]butyl}-4,5-dihydro-1,2,4-triazin-6(1H)-one (17)] | 37 nM | 91 nM |
| O=C1NN=C(C2CCCCC2)NC1CCCCN1CCN(c2cccc(Cl)c2Cl)CC1 (stereo not given) [3-Cyclohexyl-5-{4-[4-(2,3-dichlorophenyl)piperazin-1-yl]butyl}-4,5-dihydro-1,2,4-triazin-6(1H)-one (20)] | 32 nM | 5 nM |
| CSc1ccccc1N1CCN(CCCCC2NC(C3CCCCC3)=NNC2=O)CC1 (stereo not given) [3-Cyclohexyl-5-{4-[4-(2-(methylthio)phenyl)piperazin-1-yl]butyl}-4,5-dihydro-1,2,4-triazin-6(1H)-one (19)] | 14 nM | 6 nM |
| COc1ccccc1N1CCN(CCCCC2NC(C3CCCCC3)=NNC2=O)CC1 (stereo not given) [3-Cyclohexyl-5-{4-[4-(2-methoxyphenyl)piperazin-1-yl]butyl}-4,5-dihydro-1,2,4-triazin-6(1H)-one (18)] | 5 nM | 20 nM |
| O=C1NN=C(c2ccccc2)NC1CCCCN1CCN(c2ccccc2)CC1 (stereo not given) [3-Phenyl-5-[4-(4-phenylpiperazin-1-yl)butyl]-4,5-dihydro-1,2,4-triazin-6(1H)-one (11)] | 79 nM | 95 nM |
| O=C1NN=C(c2ccccc2)NC1CCCCN1CCN(c2cccc(Cl)c2Cl)CC1 (stereo not given) [5-{4-[4-(2,3-Dichlorophenyl)piperazin-1-yl]butyl}-3-phenyl-4,5-dihydro-1,2,4-triazin-6(1H)-one (16)] | 70 nM | 16 nM |
| CSc1ccccc1N1CCN(CCCCC2NC(c3ccccc3)=NNC2=O)CC1 (stereo not given) [5-{4-[4-(2-(Methylthio)phenyl)piperazin-1-yl]butyl}-3-phenyl-4,5-dihydro-1,2,4-triazin-6(1H)-one (13)] | 28 nM | 17 nM |
| O=C1NN=C(c2ccccc2)NC1CCCCN1CCN(c2ccccc2F)CC1 (stereo not given) [5-{4-[4-(2-Fluorophenyl)piperazin-1-yl]butyl}-3-phenyl-4,5-dihydro-1,2,4-triazin-6(1H)-one (14)] | 119 nM | 100 nM |
| COc1ccccc1N1CCN(CCCCC2NC(c3ccccc3)=NNC2=O)CC1 (stereo not given) [5-{4-[4-(2-Methoxyphenyl)piperazin-1-yl]butyl}-3-phenyl-4,5-dihydro-1,2,4-triazin-6(1H)-one (12)] | 9 nM | 27 nM |
| O=C1NN=C(c2ccccc2)NC1CCCCN1CCN(c2ccc(Cl)cc2)CC1 (stereo not given) [5-{4-[4-(4-Chlorophenyl)piperazin-1-yl]butyl}-3-phenyl-4,5-dihydro-1,2,4-triazin-6(1H)-one (15)] | 698 nM | 79 nM |
